From patent publication US20250101023A1, “HETEROARYL DERIVATIVE AND USES THEREOF” (IUCF-HYU (INDUSTRY-UNIVERSITY COOPERATION FOUNDATION …, priority 2022, published 2025)

Assays:
Experiment in all cases: Kinome-wide profiling
Format in all cases: biochemical
Conditions in all cases: read-out: % Residual Activity (mean)
SLK/STK2 = SLK/STK2 (Homo sapiens (Human), UniProt Q9H2G2)
MST1/STK4 = MST1/STK4 (Homo sapiens (Human), UniProt Q13043)
CDK16/cyclin Y (PCTAIRE) = CDK16/cyclin Y (PCTAIRE) (Homo sapiens (Human), UniProt Q00536)
IRAK4 = IRAK4 (Homo sapiens (Human), UniProt Q9NWZ3)
LCK = LCK (Homo sapiens (Human), UniProt P06239)
BRAF = BRAF (Homo sapiens (Human), UniProt P15056)
DYRK1/DYRKIA = DYRK1/DYRKIA (Homo sapiens (Human), UniProt Q13627)
KSR2 = KSR2 (Homo sapiens (Human), UniProt Q6VAB6)
FER = FER (Homo sapiens (Human), UniProt P16591)
ALK = ALK (Homo sapiens (Human), UniProt Q9UM73)
EPHA5 = EPHA5 (Homo sapiens (Human), UniProt P54756)
MAPKAPK5/PRAK = MAPKAPK5/PRAK (Homo sapiens (Human), UniProt Q8IW41)
PKCa = PKCa (Homo sapiens (Human), UniProt P17252)
MEK3 = MEK3 (Homo sapiens (Human), UniProt P46734)
PAK4 = PAK4 (Homo sapiens (Human), UniProt O96013)
TYRO3/SKY = TYRO3/SKY (Homo sapiens (Human), UniProt Q06418)
EGFR = EGFR (Homo sapiens (Human), UniProt P00533)
PRKX = PRKX (Homo sapiens (Human), UniProt P51817)
CAMK4 = CAMK4 (Homo sapiens (Human), UniProt Q16566)
FGFR3 = FGFR3 (Homo sapiens (Human), UniProt P22607)
CDK4/cyclin D2 = CDK4/cyclin D2 (Homo sapiens (Human), UniProt P11802)
DYRK3 = DYRK3 (Homo sapiens (Human), UniProt O43781)
TRKB = TRKB (Homo sapiens (Human), UniProt Q16620)
TAOK2/TAO1 = TAOK2/TAO1 (Homo sapiens (Human), UniProt Q9UL54)
EPHB2 = EPHB2 (Homo sapiens (Human), UniProt P29323)
MST2/STK3 = MST2/STK3 (Homo sapiens (Human), UniProt Q13188)
CDK2/cyclin A1 = CDK2/cyclin A1 (Homo sapiens (Human), UniProt P24941)
GSK3b = GSK3b (Homo sapiens (Human), UniProt P49841)
ROCK1 = ROCK1 (Homo sapiens (Human), UniProt Q13464)
MYO3A = MYO3A (Homo sapiens (Human), UniProt Q8NEV4)
MKK6 = MKK6 (Homo sapiens (Human), UniProt P52564)
PKN1/PRK1 = PKN1/PRK1 (Homo sapiens (Human), UniProt Q16512)
CSK = CSK (Homo sapiens (Human), UniProt P41240)
STK22D/TSSK1 = STK22D/TSSK1 (Homo sapiens (Human), UniProt Q9BXA7)
SRPK1 = SRPK1 (Homo sapiens (Human), UniProt Q96SB4)
GSK3a = GSK3a (Homo sapiens (Human), UniProt P49840)
KDR/VEGFR2 = KDR/VEGFR2 (Homo sapiens (Human), UniProt P35968)
TXK = TXK (Homo sapiens (Human), UniProt P42681)
AURORA C = AURORA C (Homo sapiens (Human), UniProt Q9UQB9)

Sequence of PRKX (P51817 whole entry): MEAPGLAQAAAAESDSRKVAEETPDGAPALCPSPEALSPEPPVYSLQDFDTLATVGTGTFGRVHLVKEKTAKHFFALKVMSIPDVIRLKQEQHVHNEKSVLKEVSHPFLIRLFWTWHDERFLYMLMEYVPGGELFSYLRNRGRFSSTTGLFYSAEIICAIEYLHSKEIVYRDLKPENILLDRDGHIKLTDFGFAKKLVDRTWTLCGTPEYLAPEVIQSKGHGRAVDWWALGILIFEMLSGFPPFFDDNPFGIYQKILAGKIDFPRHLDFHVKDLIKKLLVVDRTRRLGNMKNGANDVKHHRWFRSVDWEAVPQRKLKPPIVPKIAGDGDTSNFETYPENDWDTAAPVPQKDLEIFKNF
Sequence of GSK3a (P49840 whole entry): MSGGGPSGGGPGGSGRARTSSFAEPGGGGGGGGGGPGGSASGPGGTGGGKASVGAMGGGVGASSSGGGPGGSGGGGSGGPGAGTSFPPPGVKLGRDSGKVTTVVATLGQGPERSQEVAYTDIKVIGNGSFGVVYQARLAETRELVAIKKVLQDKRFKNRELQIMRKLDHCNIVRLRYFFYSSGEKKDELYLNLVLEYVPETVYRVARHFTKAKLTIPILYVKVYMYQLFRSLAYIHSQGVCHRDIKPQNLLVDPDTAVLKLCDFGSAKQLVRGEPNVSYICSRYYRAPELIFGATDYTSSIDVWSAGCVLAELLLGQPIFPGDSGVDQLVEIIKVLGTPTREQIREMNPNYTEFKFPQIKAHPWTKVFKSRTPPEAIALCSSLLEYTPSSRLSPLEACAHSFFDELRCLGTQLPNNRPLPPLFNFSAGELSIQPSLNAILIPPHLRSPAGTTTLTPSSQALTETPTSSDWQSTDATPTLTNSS
Sequence of SLK/STK2 (Q9H2G2 whole entry): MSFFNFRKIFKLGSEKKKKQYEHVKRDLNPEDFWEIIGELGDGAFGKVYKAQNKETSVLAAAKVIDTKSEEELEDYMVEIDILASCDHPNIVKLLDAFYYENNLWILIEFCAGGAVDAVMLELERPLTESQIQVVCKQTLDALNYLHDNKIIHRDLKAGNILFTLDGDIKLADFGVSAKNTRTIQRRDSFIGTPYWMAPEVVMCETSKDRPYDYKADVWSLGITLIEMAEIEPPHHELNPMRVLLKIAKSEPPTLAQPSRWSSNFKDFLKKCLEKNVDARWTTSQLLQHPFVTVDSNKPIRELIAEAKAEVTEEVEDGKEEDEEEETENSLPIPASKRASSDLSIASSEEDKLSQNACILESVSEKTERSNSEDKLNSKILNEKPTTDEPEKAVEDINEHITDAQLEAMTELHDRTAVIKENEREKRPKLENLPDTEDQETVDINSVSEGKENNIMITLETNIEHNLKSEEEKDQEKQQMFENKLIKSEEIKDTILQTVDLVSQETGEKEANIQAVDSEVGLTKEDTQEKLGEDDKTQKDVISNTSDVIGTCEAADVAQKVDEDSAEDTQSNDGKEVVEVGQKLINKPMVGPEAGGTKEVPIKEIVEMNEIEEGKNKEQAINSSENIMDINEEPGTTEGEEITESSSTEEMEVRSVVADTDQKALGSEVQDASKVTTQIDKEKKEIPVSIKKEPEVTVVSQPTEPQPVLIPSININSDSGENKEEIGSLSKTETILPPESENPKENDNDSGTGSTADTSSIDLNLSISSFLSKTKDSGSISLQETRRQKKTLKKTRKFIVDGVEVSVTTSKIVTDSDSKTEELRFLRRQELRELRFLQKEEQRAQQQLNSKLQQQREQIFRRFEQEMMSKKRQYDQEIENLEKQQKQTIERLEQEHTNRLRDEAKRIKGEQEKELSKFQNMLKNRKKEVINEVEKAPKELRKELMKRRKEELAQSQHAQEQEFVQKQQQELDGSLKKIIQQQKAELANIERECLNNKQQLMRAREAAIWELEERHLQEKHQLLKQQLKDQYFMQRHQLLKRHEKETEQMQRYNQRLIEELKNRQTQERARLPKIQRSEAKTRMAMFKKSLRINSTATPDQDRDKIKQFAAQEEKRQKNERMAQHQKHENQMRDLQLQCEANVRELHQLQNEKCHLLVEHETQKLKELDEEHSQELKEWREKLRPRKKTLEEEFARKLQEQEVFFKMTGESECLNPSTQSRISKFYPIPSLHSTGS
Sequence of FGFR3 (P22607 23-806): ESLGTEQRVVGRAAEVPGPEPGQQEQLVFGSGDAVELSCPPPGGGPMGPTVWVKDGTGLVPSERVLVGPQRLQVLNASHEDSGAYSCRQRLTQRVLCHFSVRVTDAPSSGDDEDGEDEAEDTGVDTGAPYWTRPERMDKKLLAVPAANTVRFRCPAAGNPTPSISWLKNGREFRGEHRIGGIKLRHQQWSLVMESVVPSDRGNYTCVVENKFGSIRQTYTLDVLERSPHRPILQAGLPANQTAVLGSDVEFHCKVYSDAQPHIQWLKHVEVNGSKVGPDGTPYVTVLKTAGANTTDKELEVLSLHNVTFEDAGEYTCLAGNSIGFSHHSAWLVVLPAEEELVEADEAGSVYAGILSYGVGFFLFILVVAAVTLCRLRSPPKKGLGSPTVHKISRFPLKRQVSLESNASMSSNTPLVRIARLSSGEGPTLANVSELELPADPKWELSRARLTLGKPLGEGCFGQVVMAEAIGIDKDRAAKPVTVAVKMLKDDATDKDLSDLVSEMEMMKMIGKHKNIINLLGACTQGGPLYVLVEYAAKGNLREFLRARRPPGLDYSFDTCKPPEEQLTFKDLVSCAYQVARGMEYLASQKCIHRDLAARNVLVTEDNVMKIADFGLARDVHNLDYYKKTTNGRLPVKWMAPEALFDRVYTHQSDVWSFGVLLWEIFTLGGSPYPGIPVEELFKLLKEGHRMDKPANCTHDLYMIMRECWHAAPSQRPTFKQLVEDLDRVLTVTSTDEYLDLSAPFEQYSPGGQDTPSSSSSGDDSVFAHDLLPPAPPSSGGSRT
Sequence of GSK3b (P49841 whole entry): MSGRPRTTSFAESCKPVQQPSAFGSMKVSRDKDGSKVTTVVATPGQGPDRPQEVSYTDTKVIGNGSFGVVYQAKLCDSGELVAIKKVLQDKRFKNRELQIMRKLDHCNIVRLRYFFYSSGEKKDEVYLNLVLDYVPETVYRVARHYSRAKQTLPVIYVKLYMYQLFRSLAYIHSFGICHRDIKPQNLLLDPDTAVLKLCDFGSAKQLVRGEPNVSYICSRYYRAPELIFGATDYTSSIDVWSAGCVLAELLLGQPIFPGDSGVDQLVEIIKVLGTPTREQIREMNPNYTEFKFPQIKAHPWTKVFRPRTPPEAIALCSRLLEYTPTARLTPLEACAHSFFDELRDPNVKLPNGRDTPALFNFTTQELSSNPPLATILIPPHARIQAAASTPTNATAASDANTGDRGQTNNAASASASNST
Sequence of TAOK2/TAO1 (Q9UL54 whole entry): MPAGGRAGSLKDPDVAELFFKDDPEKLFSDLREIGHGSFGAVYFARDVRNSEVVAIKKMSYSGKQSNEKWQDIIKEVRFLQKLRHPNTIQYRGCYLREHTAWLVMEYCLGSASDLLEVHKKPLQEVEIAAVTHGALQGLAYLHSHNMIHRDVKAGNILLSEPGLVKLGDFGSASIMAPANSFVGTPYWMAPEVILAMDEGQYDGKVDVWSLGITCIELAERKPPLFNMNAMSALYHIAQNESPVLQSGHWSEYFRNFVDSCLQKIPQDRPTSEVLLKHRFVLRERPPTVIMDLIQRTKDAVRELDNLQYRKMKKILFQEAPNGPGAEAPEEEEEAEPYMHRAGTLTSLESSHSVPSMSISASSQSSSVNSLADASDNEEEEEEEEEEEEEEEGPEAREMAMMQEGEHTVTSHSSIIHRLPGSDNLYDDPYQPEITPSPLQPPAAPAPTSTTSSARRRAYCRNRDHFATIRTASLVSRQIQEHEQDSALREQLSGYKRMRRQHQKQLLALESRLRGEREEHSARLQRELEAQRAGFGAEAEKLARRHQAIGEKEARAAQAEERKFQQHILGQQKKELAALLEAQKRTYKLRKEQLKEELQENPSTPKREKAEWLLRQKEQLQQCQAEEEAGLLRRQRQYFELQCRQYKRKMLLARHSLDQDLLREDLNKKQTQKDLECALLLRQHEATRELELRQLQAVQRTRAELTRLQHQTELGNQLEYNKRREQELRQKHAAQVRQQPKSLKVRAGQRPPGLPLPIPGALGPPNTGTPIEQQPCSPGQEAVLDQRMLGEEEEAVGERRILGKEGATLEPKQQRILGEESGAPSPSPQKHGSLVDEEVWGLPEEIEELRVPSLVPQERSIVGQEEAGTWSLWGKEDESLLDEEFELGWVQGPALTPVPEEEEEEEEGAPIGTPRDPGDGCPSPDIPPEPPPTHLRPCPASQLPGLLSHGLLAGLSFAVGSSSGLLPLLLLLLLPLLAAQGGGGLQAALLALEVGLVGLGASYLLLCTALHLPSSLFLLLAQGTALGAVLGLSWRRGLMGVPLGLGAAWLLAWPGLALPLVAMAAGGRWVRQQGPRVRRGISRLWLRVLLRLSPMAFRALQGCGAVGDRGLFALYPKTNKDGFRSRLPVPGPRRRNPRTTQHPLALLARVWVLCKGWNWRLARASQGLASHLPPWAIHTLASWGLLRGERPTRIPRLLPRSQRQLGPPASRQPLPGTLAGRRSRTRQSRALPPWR
Sequence of MEK3 (P46734 whole entry): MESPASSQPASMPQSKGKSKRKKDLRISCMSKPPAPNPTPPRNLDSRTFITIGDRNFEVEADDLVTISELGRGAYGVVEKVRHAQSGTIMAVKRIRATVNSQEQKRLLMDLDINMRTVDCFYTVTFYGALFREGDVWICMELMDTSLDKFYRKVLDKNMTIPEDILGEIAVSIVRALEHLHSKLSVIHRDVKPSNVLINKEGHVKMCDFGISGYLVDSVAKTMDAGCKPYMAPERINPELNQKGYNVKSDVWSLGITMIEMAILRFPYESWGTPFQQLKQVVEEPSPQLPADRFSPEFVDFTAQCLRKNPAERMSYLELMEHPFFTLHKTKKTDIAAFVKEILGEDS

Q: What does the source list for CCn1cnc2c(NCc3ccc(-c4ccccn4)nc3)nc(-c3ccc(N)nc3)nc21 [Example 53, N-([2,2′-bipyridin]-5-ylmethyl)-2-(6-aminopyridin-3-yl)-9-ethyl-9H-purin-6-amine]?
A: remaining activity at 10 µM (SLK/STK2): 69.5%; remaining activity at 10 µM (MST1/STK4): 62.2%; remaining activity at 10 µM (CDK16/cyclin Y (PCTAIRE)): 17.5%; remaining activity at 10 µM (IRAK4): 94.8%; remaining activity at 10 µM (LCK): 83.6%; remaining activity at 10 µM (BRAF): 60.8%; remaining activity at 10 µM (DYRK1/DYRKIA): 3.85%; remaining activity at 10 µM (KSR2): 88.4%; remaining activity at 10 µM (FER): 52.3%; remaining activity at 10 µM (ALK): 59.7%; remaining activity at 10 µM (EPHA5): 5.86%; remaining activity at 10 µM (MAPKAPK5/PRAK): 103%; remaining activity at 10 µM (PKCa): 62.4%; remaining activity at 10 µM (MEK3): 73.5%; remaining activity at 10 µM (PAK4): 12.9%; remaining activity at 10 µM (TYRO3/SKY): 22.4%; remaining activity at 10 µM (EGFR): 83.7%; remaining activity at 10 µM (PRKX): 79.2%; remaining activity at 10 µM (CAMK4): 95.2%; remaining activity at 10 µM (FGFR3): 30.6%; remaining activity at 10 µM (CDK4/cyclin D2): 21.8%; remaining activity at 10 µM (DYRK3): 58.6%; remaining activity at 10 µM (TRKB): 16.5%; remaining activity at 10 µM (TAOK2/TAO1): 23.8%; remaining activity at 10 µM (EPHB2): 2.52%; remaining activity at 10 µM (MST2/STK3): 53.5%; remaining activity at 10 µM (CDK2/cyclin A1): 0.16%; remaining activity at 10 µM (GSK3b): 5.76%; remaining activity at 10 µM (ROCK1): 97.2%; remaining activity at 10 µM (MYO3A): 71.3%; remaining activity at 10 µM (MKK6): 95.4%; remaining activity at 10 µM (PKN1/PRK1): 85.4%; remaining activity at 10 µM (CSK): 54.8%; remaining activity at 10 µM (STK22D/TSSK1): 38%; remaining activity at 10 µM (SRPK1): 54.3%; remaining activity at 10 µM (GSK3a): 10.6%; remaining activity at 10 µM (KDR/VEGFR2): 88.6%; remaining activity at 10 µM (TXK): 34.9%; remaining activity at 10 µM (AURORA C): 25.5%
